Measurements from paper PMC11697113, “The Hsc70 system maintains the synaptic SNARE protein SNAP-25 in an assembly-competent state and delays its aggregation [drawing 1]” (The Journal of Biological Chemistry, 2024).

Assays:
V438F Hsc70 = assay: ATPase activity of V438F Hsc70; assay type: biochemical, human; settings: V438F Hsc70 2 μM, peptide 200 μM; binding site blocked; three independent experiments (Fig. S3)
Excerpt: Hsp70s consist of an nucleotide-binding domain (NBD) and a substrate-binding domain (SBD). Hsc70 works using an allosteric mechanism whereby substrate binding at the SBD stimulates the ATP hydrolysis rate at the nucleotide-binding domain. The basal ATPase rate of Hsp70 is low, usually about 0.05 ± 0.009 mol Pi/mol protein, and increases when it is stimulated by binding of a peptide to the canonical site in the SBD. We measured the ability of SNAP-25 peptides SNNP and SNCP to stimulate the ATPase rate of Hsc70 (Fig. 5A). SNNP and SNCP binding cause a 1.5-fold increase of the Hsc70 ATPase rate over basal (observed rates upon addition of SNNP and SNCP were 0.089 ± 0.008 and 0.080 ± 0.005, respectively). In order to confirm that peptides are indeed binding at the canonical binding site of Hsc70, we used the V438F mutant that blocks the binding site ([37]). […] The addition of CSPαJ stimulates the ATPase activity of Hsc70 ∼4-fold with and without peptides.
We performed ATPase assays to observe the activity of Hsc70 in the presence of SNAP25 peptides. Hsc70 (2 μM) and peptide (200 μM) were incubated in HMK buffer with 1 mM DTT for 15 min followed by addition of 1 mM ATP and incubation at 37 °C for 1 h. […] Absorbance readings were taken at 620 nm using a BioTek plate reader. […]

Hsc70 = biological target: T1, Hsc70 (Homo sapiens, UniProt P11142); assay: SNAP-25 cellulose-bound peptide array probed with Hsc70; assay type: binding; settings: Hsc70 100 nM, 1 h, 25 °C; for Hsc70 binding of the SNAP-25 sequence in the peptide array: ADP/ATP, anti-Hsc70 chemiluminescence
T1 construct: 6X His-tag (TEV-cleavable) (cleaved yes); made in house; host or cells: E. coli Rosetta (DE3)
Excerpt: To explore in greater depth the binding sites for Hsc70 in SNAP-25, we screened a cellulose-bound peptide array spanning the full SNAP-25 sequence with 13-residue long peptides, overlapping by ten residues, and probed with Hsc70 in the presence of a two-fold excess of ATP and […] of ADP. The binding of Hsc70 to sites in the array was then visualized with an anti-Hsc70 primary antibody and a horse radish peroxidase-tagged secondary antibody to enable visualization by chemiluminescence (Fig. 4A). To quantitatively analyze the array, we used ImageJ (https://imagej.net/ij/) and plotted the intensity under the area for each spot. […] One site is located in the SNN, one in the LOOP, and one in the LOOP-SNC region (called SNC site) (Fig. 4A) […] (Fig. 1C). […] The binding site in the LOOP region is very close to the cysteine residues that become palmitoylated as SNAP-25 moves to its membrane-localized state. It is formally possible that Hsc70 binds to SNAP-25 in the initial un-palmitoylated state and dissociates upon palmitoylation and association with the plasma membrane. However, it can be assumed that the binding of this region to Hsc70 is not implicated in the events directly preceding SNARE complex assembly, as it will not be accessible to the chaperone. Therefore, we posit that chaperone binding to the SNN and SNC regions plays a mechanistic role in facilitating productive SNAP-25 association with the other SNARE proteins.
B, quantification of the spots from Figure 4A using ImageJ (Hsc70 (gray) and Hsc70-CSPαJ (dark gray)). Signals corresponding to SNN, Loop and Loop-SNC peptides are marked in orange, blue, and green, respectively. Orange, blue, and green lines at the top of the graph indicate the SNN, Loop and SNC regions, respectively. C, schematic representation of SNAP-25 showing the Hsc70 binding sequences (SNN (orange), Loop (black), and Loop-SNC (green)) identified in the peptide array. […]
A peptide array of SNAP-25 was obtained from CEM corporation. […] The chemiluminescence was captured in a G-box (Syngene), and the images were analyzed using ImageJ.

T1 sequence (P11142 whole entry): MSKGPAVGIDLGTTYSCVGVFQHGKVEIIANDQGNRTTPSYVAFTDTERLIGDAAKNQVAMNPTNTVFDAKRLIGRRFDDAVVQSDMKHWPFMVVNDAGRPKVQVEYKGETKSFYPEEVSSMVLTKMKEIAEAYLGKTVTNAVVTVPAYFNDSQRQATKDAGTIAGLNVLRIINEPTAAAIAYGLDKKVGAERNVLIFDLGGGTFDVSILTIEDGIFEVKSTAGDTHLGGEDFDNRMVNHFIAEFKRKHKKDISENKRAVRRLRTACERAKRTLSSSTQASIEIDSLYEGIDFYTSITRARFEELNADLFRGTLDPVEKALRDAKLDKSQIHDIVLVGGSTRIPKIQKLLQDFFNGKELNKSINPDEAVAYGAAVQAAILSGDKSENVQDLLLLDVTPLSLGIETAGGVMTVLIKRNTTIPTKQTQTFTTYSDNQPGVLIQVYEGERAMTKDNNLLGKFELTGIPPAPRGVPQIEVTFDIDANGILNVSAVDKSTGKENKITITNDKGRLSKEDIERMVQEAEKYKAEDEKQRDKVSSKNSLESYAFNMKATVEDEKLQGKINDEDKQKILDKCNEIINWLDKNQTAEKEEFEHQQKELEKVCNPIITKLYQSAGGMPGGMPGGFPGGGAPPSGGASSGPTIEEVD

Row | Substance | enhancement of V438F Hsc70 ATPase activity (V438F Hsc70) | Hsc70 binding of the SNAP-25 sequence in the peptide array (Hsc70) | number of major Hsc70 binding sites on SNAP-25 (Hsc70; 13-residue peptides overlapping by ten, 20 μM ADP, 200 nM ATP, ECL, ImageJ, sites in SNN, LOOP and LOOP-SNC)
1 | EREQMAISGGFIRR [SNCP, peptide … from the LOOP-SNC domain of SNAP-25] | did not enhance its ATPase activity | strong binding | –
2 | RRMLQLVEESK [SNNP, peptide … from the SNN domain of SNAP-25] | did not enhance its ATPase activity | strong binding | –
3 | synaptosomal-associated 25 kDa protein [SNAP-25] | – | – | Three major Hsc70 binding sites
